The record followed here is patent US9926281B2 (priority 2014, dated 2018).

One test concerns the target human ADAMTS-5 (Homo sapiens (Human), UniProt Q9UNA0). Particulars: read-out: hADAMTS-5 potency IC50.
The target in the next test is human TACE (Homo sapiens (Human), UniProt P78536). The following applies: read-out: TACE potency IC50.
Chain of human TACE (P78536 whole entry, looked up, change not shown): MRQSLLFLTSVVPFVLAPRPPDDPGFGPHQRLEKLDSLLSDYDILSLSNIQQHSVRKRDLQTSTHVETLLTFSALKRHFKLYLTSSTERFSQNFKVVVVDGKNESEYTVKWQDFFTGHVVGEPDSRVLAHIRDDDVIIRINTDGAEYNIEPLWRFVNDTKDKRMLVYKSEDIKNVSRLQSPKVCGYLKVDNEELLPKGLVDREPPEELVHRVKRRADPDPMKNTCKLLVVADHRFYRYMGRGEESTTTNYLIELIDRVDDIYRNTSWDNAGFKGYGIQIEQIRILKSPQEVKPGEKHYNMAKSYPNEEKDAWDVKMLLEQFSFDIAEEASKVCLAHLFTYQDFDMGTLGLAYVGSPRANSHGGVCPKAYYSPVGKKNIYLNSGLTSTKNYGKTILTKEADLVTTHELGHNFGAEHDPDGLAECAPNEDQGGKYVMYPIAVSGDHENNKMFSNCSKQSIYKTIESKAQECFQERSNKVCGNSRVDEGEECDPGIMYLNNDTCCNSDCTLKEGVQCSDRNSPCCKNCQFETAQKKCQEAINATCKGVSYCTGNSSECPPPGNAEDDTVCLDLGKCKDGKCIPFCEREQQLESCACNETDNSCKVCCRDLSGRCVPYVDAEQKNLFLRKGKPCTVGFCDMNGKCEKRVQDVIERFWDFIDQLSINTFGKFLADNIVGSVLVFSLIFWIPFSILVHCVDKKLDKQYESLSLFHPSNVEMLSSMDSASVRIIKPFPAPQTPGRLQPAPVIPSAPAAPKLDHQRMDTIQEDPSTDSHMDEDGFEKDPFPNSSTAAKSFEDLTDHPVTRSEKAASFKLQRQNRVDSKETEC

Chain of human ADAMTS-5 (Q9UNA0 262-930): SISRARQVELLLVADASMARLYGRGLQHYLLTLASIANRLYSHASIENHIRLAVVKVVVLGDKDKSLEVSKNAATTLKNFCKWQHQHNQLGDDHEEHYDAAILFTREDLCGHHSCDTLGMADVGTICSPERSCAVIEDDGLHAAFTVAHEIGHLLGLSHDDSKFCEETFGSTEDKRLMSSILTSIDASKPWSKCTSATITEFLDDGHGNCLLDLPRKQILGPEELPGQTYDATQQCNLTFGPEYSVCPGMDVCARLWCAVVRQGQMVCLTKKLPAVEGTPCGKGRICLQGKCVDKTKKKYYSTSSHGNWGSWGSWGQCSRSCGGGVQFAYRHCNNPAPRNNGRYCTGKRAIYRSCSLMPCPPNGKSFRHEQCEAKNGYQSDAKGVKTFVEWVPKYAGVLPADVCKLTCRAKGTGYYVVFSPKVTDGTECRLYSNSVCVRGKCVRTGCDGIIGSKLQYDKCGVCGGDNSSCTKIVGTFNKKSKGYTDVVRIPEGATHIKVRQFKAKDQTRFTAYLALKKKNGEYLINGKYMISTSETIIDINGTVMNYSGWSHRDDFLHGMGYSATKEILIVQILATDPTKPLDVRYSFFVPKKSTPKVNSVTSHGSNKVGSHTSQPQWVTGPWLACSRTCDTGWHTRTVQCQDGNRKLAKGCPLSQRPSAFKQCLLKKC
Procedure for human ADAMTS-5: Finally, the fluorescence is read on the Envision (Perkin Elmer) after an incubation of 90 min at 37° C.

For `C[C@@H](C[C@@]1(C2CC2)NC(=O)NC1=O)C(=O)N1CCN(c2ccc(F)c(-c3cn[nH]c3)c2)[C@@H](C)C1` [compound 378, 5-cyclopropyl-5-[3-[(3S)-4-[4-fluoro-3-(1H-pyrazol-4-yl)phenyl]-3-methyl-piperazin-1-yl]-2-methyl-3-oxo-propyl]imidazolidine-2,4-dione], the IC50 (usually the concentration at which inhibition is half-maximal) at human ADAMTS-5 was 0.022 µM; on human TACE, above 4 µM.
In the same order, the values of `COC[C@]1(C[C@H](C)C(=O)N2CCN(c3cccc(-c4cn[nH]c4)c3)[C@@H](C)C2)NC(=O)NC1=O` [compound 380, 5-(methoxymethyl)-5-[2-methyl-3-[(3S)-3-methyl-4-[3-(1H-pyrazol-4-yl)phenyl]piperazin-1-yl]-3-oxo-propyl]imidazolidine-2,4-dione] are 0.047 µM and above 4 µM.
For `C[C@H]1CN(C(=O)CCC2(C3CC3)NC(=O)NC2=O)CCN1c1cccc(-c2ccc(Cl)nn2)c1` (stereo partly drawn) [compound 381, 5-[3-[(3S)-4-[3-(6-chloropyridazin-3-yl)phenyl]-3-methyl-piperazin-1-yl]-3-oxo-propyl]-5-cyclopropyl-imidazolidine-2,4-dione] the same measures were 1.97 µM and above 20 µM.
In the same order, the values of `C[C@H]1CN(C(=O)CCC2(c3ncccn3)NC(=O)NC2=O)CCN1c1cc(F)cc(F)c1` (stereo partly drawn) [compound 382, 5-[3-[(3S)-4-(3,5-difluorophenyl)-3-methyl-piperazin-1-yl]-3-oxo-propyl]-5-pyrimidin-2-yl-imidazolidine-2,4-dione] are 0.039 µM and above 20 µM.
Consider `Cc1ccc(C2(CCC(=O)N3CCN(c4cc(F)cc(Cl)c4)[C@@H](C)C3)NC(=O)NC2=O)cn1` (stereo partly drawn) [compound 383, 5-[3-[(3S)-4-(3-chloro-5-fluoro-phenyl)-3-methyl-piperazin-1-yl]-3-oxo-propyl]-5-(6-methyl-3-pyridyl)imidazolidine-2,4-dione], for which the results for the IC50 at human ADAMTS-5 and at human TACE were 0.043 µM and above 4 µM, respectively.
In the same order, the values of `Cc1ccc(C2(CCC(=O)N3CCN(c4cc(Cl)cc(Cl)c4)[C@@H](C)C3)NC(=O)NC2=O)cn1` (stereo partly drawn) [compound 384, 5-[3-[(3S)-4-(3,5-dichlorophenyl)-3-methyl-piperazin-1-yl]-3-oxo-propyl]-5-(6-methyl-3-pyridyl)imidazolidine-2,4-dione] are 0.06 µM and 2.23 µM.
In the same order, the values of `Cc1ccc(C2(CCC(=O)N3CCN(c4cccc(F)c4)[C@@H](C)C3)NC(=O)NC2=O)cn1` (stereo partly drawn) [compound 385, 5-[3-[(3S)-4-(3-fluorophenyl)-3-methyl-piperazin-1-yl]-3-oxo-propyl]-5-(6-methyl-3-pyridyl)imidazolidine-2,4-dione] are 0.071 µM and above 4 µM.
For `Cc1ccc(C2(CCC(=O)N3CCN(c4cc(F)cc(F)c4)[C@@H](C)C3)NC(=O)NC2=O)cn1` (stereo partly drawn) [compound 386, 5-[3-[(3S)-4-(3,5-difluorophenyl)-3-methyl-piperazin-1-yl]-3-oxo-propyl]-5-(6-methyl-3-pyridyl)imidazolidine-2,4-dione] the same measures were 0.048 µM and above 4 µM.
Regarding `Cc1cc(C2(CCC(=O)N3CCN(c4cc(F)cc(F)c4)[C@@H](C)C3)NC(=O)NC2=O)no1` (stereo partly drawn) [compound 387, 5-[3-[(3S)-4-(3,5-difluorophenyl)-3-methyl-piperazin-1-yl]-3-oxo-propyl]-5-(5-methylisoxazol-3-yl)imidazolidine-2,4-dione], the IC50 on human ADAMTS-5 is 0.037 µM; at human TACE, above 4 µM.
In the case of `CNc1cc(N2CCN(C(=O)CC[C@@]3(C)NC(=O)NC3=O)C[C@@H]2C)ccc1Cl` [compound 392, (5R)-5-[3-[(3S)-4-[4-chloro-3-(methylamino)phenyl]-3-methyl-piperazin-1-yl]-3-oxo-propyl]-5-methyl-imidazolidine-2,4-dione], the IC50 was 0.567 µM at human ADAMTS-5 and above 20 µM on human TACE.
As to `C[C@H]1CN(C(=O)CCC2(c3ccn(C)n3)NC(=O)NC2=O)CCN1c1cc(F)cc(F)c1` (stereo partly drawn) [compound 394, 5-[3-[(3S)-4-(3,5-difluorophenyl)-3-methyl-piperazin-1-yl]-3-oxo-propyl]-5-(1-methylpyrazol-3-yl)imidazolidine-2,4-dione], the values for the IC50 on human ADAMTS-5 and on human TACE were 0.049 µM and above 20 µM, respectively.
For `Cc1nc(C2(CCC(=O)N3CCN(c4cc(F)cc(F)c4)[C@@H](C)C3)NC(=O)NC2=O)co1` (stereo partly drawn) [compound 395, 5-[3-[(3S)-4-(3,5-difluorophenyl)-3-methyl-piperazin-1-yl]-3-oxo-propyl]-5-(2-methyloxazol-4-yl)imidazolidine-2,4-dione] the same measures were 0.039 µM and above 20 µM.
For `Cc1cc(N2CCN(C(=O)CC[C@@]3(C)NC(=O)NC3=O)C[C@@H]2C)cc(C)c1Cl` [compound 400, (5R)-5-[3-[(3S)-4-(4-chloro-3,5-dimethyl-phenyl)-3-methyl-piperazin-1-yl]-3-oxo-propyl]-5-methyl-imidazolidine-2,4-dione] the same measures were 0.383 µM and 2.93 µM.
For `CC(CC1NC(=O)NC1=O)C(=O)N1CCN(c2ccc(F)c(Cl)c2)[C@@H](C)C1` (stereo partly drawn) [compound 441, 5-(3-((S)-4-(3-chloro-4-fluorophenyl)-3-methylpiperazin-1-yl)-2-methyl-3-oxopropyl)imidazolidine-2,4-dione] the same measures were 0.059 µM and above 20 µM.
As to `CC(CC1(c2ccccn2)NC(=O)NC1=O)C(=O)N1CCN(c2cc(Cl)cc(Cl)c2)[C@@H](C)C1` (stereo partly drawn) [compound 442, 5-(3-((S)-4-(3,5-dichlorophenyl)-3-methylpiperazin-1-yl)-2-methyl-3-oxopropyl)-5-(pyridin-2-yl)imidazolidine-2,4-dione], the figures for the IC50 at human ADAMTS-5 and at human TACE were 0.024 µM and 0.789 µM, respectively.
As for `CCC1(CC(C)C(=O)N2CCN(c3ccc(F)c(Cl)c3)[C@@H](C)C2)NC(=O)NC1=O` (stereo partly drawn) [compound 444, 5-(3-((S)-4-(3-chloro-4-fluorophenyl)-3-methylpiperazin-1-yl)-2-methyl-3-oxopropyl)-5-ethylimidazolidine-2,4-dione], the IC50 was 0.025 µM at human ADAMTS-5 and above 4 µM on human TACE.
For `CC(CC1(c2ccccn2)NC(=O)NC1=O)C(=O)N1CCN(c2cccc(Cl)c2)[C@@H](C)C1` (stereo partly drawn) [compound 446, 5-(3-((S)-4-(3-chlorophenyl)-3-methylpiperazin-1-yl)-2-methyl-3-oxopropyl)-5-(pyridin-2-yl)imidazolidine-2,4-dione] the same measures were 0.019 µM and 0.84 µM.
In the same order, the values of `Cc1cccc(C2(CCC(=O)N3CCN(c4ccc(F)c(Cl)c4)[C@@H](C)C3)NC(=O)NC2=O)n1` (stereo partly drawn) [compound 447, 5-[3-[(3S)-4-(3-chloro-4-fluoro-phenyl)-3-methyl-piperazin-1-yl]-3-oxo-propyl]-5-(6-methyl-2-pyridyl)imidazolidine-2,4-dione] are 0.056 µM and 3.62 µM.
In the same order, the values of `COCC1(CC(C)C(=O)N2CCN(c3cc(F)c(Cl)c(F)c3)CC2)NC(=O)NC1=O` (stereo not shown) [compound 448] are 0.019 µM and 2.99 µM.
On to `COC(CC1(C)NC(=O)NC1=O)C(=O)N1CCN(c2ccc(F)c(Cl)c2)[C@@H](C)C1` (stereo partly drawn) [compound 450, 5-(3-((S)-4-(3-chloro-4-fluorophenyl)-3-methylpiperazin-1-yl)-2-methoxy-3-oxopropyl)-5-methylimidazolidine-2,4-dione], for which the figures for the IC50 at human ADAMTS-5 and at human TACE were 0.058 µM and above 20 µM, respectively.
